Where a name gives a salt, the structure may show the parent alone. Read-outs that look alike come from different tables or passages of the source.
Molecular target: SARS-CoV-2 3CLpro (Severe acute respiratory syndrome coronavirus 2, UniProt P0DTD1)
Assay: biochemical
Assay type: biochemical
Design: Replicate_1 / Replicate_2 / mean / mean (LOPAC_screen_w_protease): unit not given here
Details: for inhibition at 5 µM: 4 h
[1] = sheet LOPAC_screen_w_protease, primary screen with protease, mean of two replicates
[2] = sheet LOPAC_screen_w_protease, primary screen with protease, replicate 1
[3] = sheet LOPAC_screen_w_protease, primary screen with protease, replicate 2
[4] = sheet LOPAC_screen_w_protease, primary screen with protease, compound at 5 µM, mean of two replicates, read-out: mean
[5] = sheet LOPAC_screen_w_protease, primary screen with protease, compound at 5 µM, replicate 1, read-out: Replicate_1
[6] = sheet LOPAC_screen_w_protease, primary screen with protease, compound at 5 µM, replicate 2, read-out: Replicate_2
[7] = LOPAC1280 primary screen with protease, 5 µM compound, replicate 1, read-out: Replicate_1 (LOPAC_screen_w_protease)
[8] = LOPAC1280 primary screen with protease, 5 µM compound, replicate 2, read-out: Replicate_2 (LOPAC_screen_w_protease)
[9] = LOPAC1280 primary screen with protease, 5 µM compound, mean of the two replicates
[10] = sheet LOPAC_screen_w_protease, LOPAC1280 at 5 µM, mean of two replicates, read-out: mean
[11] = sheet LOPAC_screen_w_protease, LOPAC1280 at 5 µM, replicate 1, read-out: Replicate_1
[12] = sheet LOPAC_screen_w_protease, LOPAC1280 at 5 µM, replicate 2, read-out: Replicate_2
[13] = LOPAC1280 primary screen with protease, 5 µM compound, mean of two replicates

C=CC[N+](C)(C)c1ccc(CCC(=O)CCc2ccc([N+](C)(C)CC=C)cc2)cc1.[Br-].[Br-] [BW 284c51]
Replicate_1: 2.051 | Replicate_2: 3.598 | mean: 2.825

CC(N)Cc1c[nH]c2ccc(OCc3cccs3)cc12 (stereo not drawn) [BW 723C86]
Replicate_1: 2.832 | Replicate_2: 3.4189 | mean: 3.125

CC(/C=C/c1cccc(Oc2ccc(F)cc2)c1)N(O)C(N)=O (stereo not drawn) [BWB70C]
mean [1]: 2.212 | Replicate_1 [2]: 2.534 | Replicate_2 [3]: 1.889

C[C@H]1C[C@H]2[C@@H]3CCC4=CC(=O)C=C[C@]4(C)[C@@]3(Cl)[C@@H](O)C[C@]2(C)[C@@]1(O)C(=O)CO [Beclomethasone]
mean (sheet LOPAC_screen_w_protease, primary screen with protease, 5 µM, mean of two replicates): -0.1197 | Replicate_1 (sheet LOPAC_screen_w_protease, primary screen with protease, 5 µM, replicate 1): -0.1957 | Replicate_2 (sheet LOPAC_screen_w_protease, primary screen with protease, 5 µM, replicate 2): -0.04382

c1ccc2cc(-c3ncc[nH]3)ccc2c1 [Benazoline oxalate]
inhibition at 5 µM (sheet LOPAC_screen_w_protease, primary screen of LOPAC1280 at 5 µM with protease, mean of the two replicates, read-out: mean): 3.39% | inhibition at 5 µM (sheet LOPAC_screen_w_protease, primary screen of LOPAC1280 at 5 µM with protease, replicate 1, read-out: Replicate_1): 1.95% | inhibition at 5 µM (sheet LOPAC_screen_w_protease, primary screen of LOPAC1280 at 5 µM with protease, replicate 2, read-out: Replicate_2): 4.83%

COc1cccc(OC)c1OCCNCC1CSc2ccccc2O1 (stereo not drawn) [Benoxathian hydrochloride]
inhibition at 5 µM [4]: 2.7% | inhibition at 5 µM [5]: 1.96% | inhibition at 5 µM [6]: 3.44%

NC(=O)c1ccccc1 [Benzamide]
inhibition at 5 µM (sheet LOPAC_screen_w_protease, LOPAC1280 primary screen at 5 µM, with protease, mean of the two replicates, read-out: mean): 0.755% | inhibition at 5 µM (sheet LOPAC_screen_w_protease, LOPAC1280 primary screen at 5 µM, with protease, replicate 1, read-out: Replicate_1): 1.21% | inhibition at 5 µM (sheet LOPAC_screen_w_protease, LOPAC1280 primary screen at 5 µM, with protease, replicate 2, read-out: Replicate_2): 0.297%

N=C(N)c1ccccc1 [Benzamidine hydrochloride]
inhibition at 5 µM (sheet LOPAC_screen_w_protease, primary screen with protease, mean of two replicates, read-out: mean): 2.38% | inhibition at 5 µM (sheet LOPAC_screen_w_protease, primary screen with protease, replicate 1, read-out: Replicate_1): 1.49% | inhibition at 5 µM (sheet LOPAC_screen_w_protease, primary screen with protease, replicate 2, read-out: Replicate_2): 3.28%

NC(=NCc1ccccc1)NC(=O)c1nc(Cl)c(N)nc1N [Benzamil hydrochloride]
inhibition at 5 µM [7]: 1.66% | inhibition at 5 µM [8]: 1.83% | mean (LOPAC_screen_w_protease) [9]: 1.743

CN1[C@@H]2CC[C@H]1C[C@@H](OC(c1ccccc1)c1ccccc1)C2 [Benztropine mesylate]
inhibition at 5 µM [4]: 3.08% | inhibition at 5 µM [5]: 0.913% | inhibition at 5 µM [6]: 5.26%

CC(C)COCC(CN(Cc1ccccc1)c1ccccc1)N1CCCC1 (stereo not drawn) [Bepridil hydrochloride]
inhibition at 5 µM (read-out: Replicate_1 (LOPAC screen with protease)): 8.81% | inhibition at 5 µM (read-out: Replicate_2 (LOPAC screen with protease)): 7.08% | inhibition at 5 µM (read-out: mean (LOPAC screen with protease)): 7.94%

CC(C)C[C@H](NC(=O)[C@@H](O)[C@H](N)Cc1ccccc1)C(=O)O [Bestatin hydrochloride]
inhibition at 5 µM [7]: 1.1% | inhibition at 5 µM [8]: 3.15% | mean (LOPAC_screen_w_protease) [9]: 2.127

C[N+](C)(C)CC(=O)O [Betaine hydrochloride]
inhibition at 5 µM [10]: 1.07% | inhibition at 5 µM [11]: 0.144% | inhibition at 5 µM [12]: 1.99%

CC(C)NCC(O)COc1ccc(CCOCC2CC2)cc1 (stereo not drawn) [Betaxolol hydrochloride]
inhibition at 5 µM (read-out: Replicate_1): 0.905% | inhibition at 5 µM (read-out: Replicate_2): 3.87% | inhibition at 5 µM (read-out: mean): 2.39%

CC(C[N+](C)(C)C)OC(N)=O (stereo not drawn) [Bethanechol chloride]
inhibition at 5 µM [7]: 0.465% | inhibition at 5 µM [8]: 2.25% | mean (LOPAC_screen_w_protease) [13]: 1.356

C=CCc1ccccc1OCC(O)CNC1(C)CCC(C(C)(C)NC(=O)CBr)CC1 (stereo not drawn) [Bromoacetyl alprenolol menthane]
inhibition at 5 µM [10]: 1.3% | inhibition at 5 µM [11]: 0.0303% | inhibition at 5 µM [12]: 2.58%

C[N+](C)(C)CCOC(=O)CBr.[Br-] [Bromoacetylcholine bromide]
mean [1]: 2.401 | Replicate_1 [2]: 0.6425 | Replicate_2 [3]: 4.16

CCCC1O[C@@H]2C[C@H]3[C@@H]4CCC5=CC(=O)C=C[C@]5(C)[C@H]4[C@@H](O)C[C@]3(C)[C@]2(C(=O)CO)O1 (stereo partly drawn) [Budesonide]
inhibition at 5 µM [4]: 3.01% | inhibition at 5 µM [5]: 1.81% | inhibition at 5 µM [6]: 4.21%

CCCCNc1cc(C(=O)O)cc(S(N)(=O)=O)c1Oc1ccccc1 [Bumetanide]
inhibition at 5 µM (read-out: Replicate_1): -0.596% | inhibition at 5 µM (read-out: Replicate_2): 1.11% | inhibition at 5 µM (read-out: mean): 0.258%

CC(NC(C)(C)C)C(=O)c1cccc(Cl)c1 (stereo not drawn) [Bupropion hydrochloride]
inhibition at 5 µM (read-out: Replicate_1): 2.66% | inhibition at 5 µM (read-out: Replicate_2): 2.67% | inhibition at 5 µM (read-out: mean): 2.67%

CCCN(CCC)C(=O)Cc1c(-c2ccc(Cl)cc2)nc2c(Cl)cc(Cl)cn12 [CB34]
Replicate_1: 2.062 | Replicate_2: 2.367 | mean: 2.2145

NC(=O)c1cc(N2CC2)c([N+](=O)[O-])cc1[N+](=O)[O-] [CB 1954]
inhibition at 5 µM [7]: 0.308% | inhibition at 5 µM [8]: 3.06% | mean (LOPAC_screen_w_protease) [13]: 1.686
